1 molecule from PMC6710338, “Turning a Collagenesis-Inducing Peptide Into a Potent Antibacterial and Antibiofilm Agent Against Multidrug-Resistant Gram-Negative Bacteria” (Frontiers in Microbiology, 2019) can be followed below.

Assay [1] concerns MDR clinical isolates of K. pneumoniae (KP004, KP007, KP010). The assay is classed as cell-based, Klebsiella pneumoniae. The conditions noted are these: for MIC: MHB2. As to the method:
(§1) The minimum inhibitory concentration (MIC) of synthetic peptides was determined using the broth microdilution method in cation-adjusted Mueller-Hinton broth (MHB2 – Sigma-Aldrich, St. Louis, MO, United States), according to the recommendations of the Clinical and Laboratory Standards Institute ([CLSI, 2012]), against four reference strains, namely, P. aeruginosa ATCC 27853, E. coli ATCC 25922, S. aureus ATCC 25923 and Enterococcus faecalis ATCC 29212. MIC values of peptide 3.1-PP4 were also determined against MDR clinical isolates of P. aeruginosa (PA002, PA004, Pa3, Pa4), E. coli (Ec1, Ec2, EC001, EC002, EC003) and K. pneumoniae (KP004, KP007, KP010). The peptides were tested in the concentration range of 1–1024 μg/mL. The minimum bactericidal concentration (MBC) was determined as previously reported ([Bessa et al., 2018]).
(§2) In view of the above results, peptide conjugate 3.1-PP4 was selected for further investigation of its activity against MDR isolates of three Gram-negative bacterial species, namely, P. aeruginosa (four isolates), E. coli (five isolates), and K. pneumoniae (four isolates), whose antimicrobial resistance patterns are provided in the Supplementary Table S1. MDR isolates of K. pneumoniae were included in this analysis given (i) the high prevalence of K. pneumoniae in HAI ([Zheng et al., 2017]), (ii) that K. pneumoniae isolates used are carbanepem-resistant strains of an Enterobacteriaceae species, meaning that they are class 1 priority pathogens for the research and development of new antibiotics according to the WHO ([WHO, 2017]), and (iii) K. pneumoniae bacteria are usually better biofilm producers than the other Enterobacteriaceae species used, E. coli ([Reisner et al., 2006]). MIC values obtained are shown in Table 3, and confirm peptide’s 3.1-PP4 potent action against Gram-negative bacteria, including MDR isolates, with a selectivity index (SI), i.e., ratio of IC50 values for mammalian vs. bacterial cells, ranging from ca. 9–69. In fact, for P. aeruginosa and E. coli, MIC against MDR isolates were in the same range, or below, of those previously found for ATCC reference strains (Table 2). For K. pneumoniae, MIC values ranged between 1 and 4 μM, which is remarkable.

Assay [2] has as its system preformed biofilms of MDR K. pneumoniae isolates. Nature of the assay: Biofilm metabolic activity (MTT). The assay is classed as cell-based, Klebsiella pneumoniae. The conditions noted are these: 20 × MIC, 24 h at 37°C, absorbance 570 nm. As to the method:
The respective control biofilms were equally formed but in absence of the peptide (only TSB medium was used). Afterward, the bacterial metabolic activity of biofilms was quantified after adding 3-(4,5-dimethylthiazole-2-yl)-2,5-diphenyl tetrazolium bromide (MTT, 0.5 mg/mL – Sigma-Aldrich, St. Louis, MO, United States) for 3 h at 37°C in the dark. DMSO was used to dissolve the formazan crystals formed and the absorbance at 570 nm was measured. Two independent experiments were performed in four replicates.
The influence of the peptide on the metabolic activity of preformed biofilms of one P. aeruginosa (PA004) and three K. pneumoniae (KP004, KP007, and KP010) isolates was also assessed, through a standard MTT assay.

The subject of assay [3] is biofilms of PA004, KP007, and KP010. Nature of the assay: CLSM imaging of biofilms after Live/Dead staining. The conditions noted are these: qualitative. The class given is cell-based, P. aeruginosa and K. pneumoniae. As to the method:
For confocal laser scanning microscopy (CLSM) imaging, 24 h biofilms of PA004, KP007, and KP010 were formed in μ-Dish (35 mm, high), ibidi Polymer Coverslips (ibidi GmbH, Planegg-Martinsried, Germany) as previously described by [Bessa et al. (2018)]. Biofilms were non-treated – controls (only medium was used) or treated with 3.1-PP4 at a concentration of 20 × MIC. After 24 h, all biofilms were stained using the LIVE/DEAD^TM BacLight^TM bacterial viability kit (Molecular Probes, Thermo Fisher Scientific, MA, United States). Biofilms were visualized under a laser scanning confocal system Leica TCS SP5 II (Leica Microsystems, Germany), equipped with an inverted (i) microscope Leica DMI6000-CS, using a HC PL APO CS 63x/1.30 Glycerine 21°C objective and the lasers Diode 405 nm and DPSS561 561 nm, and (ii) the LAS AF software.
To gain further insight into the peptide’s effects on the bacterial biofilms, a Live/Dead staining assay using CLSM was carried out, where untreated and peptide-treated biofilms delivered the images depicted in Figure 2. […] Noteworthy, only bacterial cells, not biofilm matrix, are stained when the Live/Dead staining is used, which means that only cells within the biofilm are observed.

Assay [4] has as its system MDR clinical isolates of E. coli (Ec1, Ec2, EC001, EC002, EC003). The assay is classed as cell-based, Escherichia coli. Particulars: MHB2. As to the method:
as §1, §2

≈ marks a conversion by molar mass, not a printed value. Where “and” joins values, the source holds several entries; their conditions need not be identical. Equal values may be shown once. Read-outs that look alike come from different tables or passages of the source. Peptide text beside a SMILES is read from it.

For `CC(C)C[C@H](NC(=O)[C@H](Cc1c[nH]c2ccccc12)NC(=O)[C@H](CCCCN)NC(=O)[C@H](CC(C)C)NC(=O)[C@H](CC(C)C)NC(=O)[C@H](CCCCN)NC(=O)[C@@H](N)CCCCN)C(=O)N[C@@H](CC(C)C)C(=O)N[C@@H](CCCCN)C(=O)N[C@@H](CC(C)C)C(=O)N[C@@H](CC(C)C)C(=O)N[C@@H](CCCCN)C(=O)N[C@H](C(=O)N[C@H](C(=O)N[C@@H](CCCCN)C(=O)N[C@@H](CO)C(N)=O)[C@@H](C)O)[C@@H](C)O` [Peptide 3.1-PP4] (H-KKLLKWLLKLLKTTKS-NH2; N-terminus assumed), the MIC in assay [1] (MDR K. pneumoniae isolate KP004) was 4 µg/mL (≈ 2.06 µM); in assay [1] (MDR K. pneumoniae isolate KP007), 8 µg/mL (≈ 4.12 µM); in assay [1] (MDR K. pneumoniae isolate KP010), 2 µg/mL (≈ 1.03 µM); in assay [4] (MDR E. coli isolate EC001) it was 2 μg/mL and 1 μM; in assay [4] (MDR E. coli isolate EC002), 2 μg/mL and 1 μM; in assay [4] (MDR E. coli isolate EC003), 1 µg/mL (≈ 0.515 µM). The MIC in assay [4] (MDR E. coli isolate Ec1) is 4 µg/mL (≈ 2.06 µM); in assay [4] (MDR E. coli isolate Ec2) it was 2 μg/mL and 1 μM. Besides, the “MIC values for K. pneumoniae” value in assay [1] (MDR clinical isolates of (KP004, KP007, KP010)) is 1 to 4 µM. Further, the “% reduction of metabolic activity in peptide-treated biofilms” value in assay [2] (isolate KP004, 24 h preformed biofilm) is recorded as 79%; in assay [2] (isolate KP007, 24 h preformed biofilm), 40%; in assay [2] (isolate KP010, 24 h preformed biofilm) it was 77%. In addition, in assay [3] (24 h biofilms of PA004, KP007, KP010 treated 24 h at 20 × MIC, vs untreated), the “ratio of red- to green-stained bacterial cells (Live/Dead, CLSM)” value is “consistently higher in peptide-treated”. Further, the “impact on biofilm (Live/Dead, CLSM)” value in assay [3] (isolate KP010, 24 h biofilm treated 24 h at 20 × MIC) was “significant biofilm disaggregation”.

For orientation: MIC means the smallest concentration in the dilution series that meets the test's criterion for growth inhibition.
